# Results taken from patent US20020048566A1, “Modulation of cellular apoptosis and methods for treating cancer” (priority 2000, published 2002).
# Residues, ends and D or L forms follow the SMILES beside them. *: point of attachment. Cbz = O=C(OCc1ccccc1)*; CH2F = FC*
# Assays:
# Assay type in all cases: cell-based, human
# [1] = system: SW480 cells; test: GFP-spectrin/PI flow cytometry for sub-G1 peak after transient transfection; set-up: key to Apoptotic ability (Table II): WT, able to induce apoptosis as well as wild-type protein; ±, 20-25% reduction in ability to induce apoptosis; −, completely deficient in ability to induce apoptosis
# Protocol: GFP/PI Fluorescence-activated Cell Sorting Analysis for Sub-G1 Peak. SW480 cells were transfected with a 1:10 ratio of EGFP-spectrin (Kalejta, R. F., et al., Mol. Ther. 1:130-144 (2000)) and KILLER/DR5 expression plasmid. Transfections were harvested at 18 hours after transfection, processed, and analyzed for the presence of a sub-G1 peak as described previously (Ozoren, N., et al., Int. J. Oncol. 16:917-925 (2000)). 10,000 GFP-positive cells were analyzed per experiment, and three independent experiments were performed for each mutant. Percentage of apoptosis was calculated by subtracting transfection-induced sub-G1 peak (vector transfection) from each wild-type or mutant KILLER/DR5 sub-G1 peak. Figures for Tables II and III were generated by setting wild-type death to 100% (˜40% sub-G1 peak at 18 hours) in order to compare point mutants to the wild-type protein.
# (§1) Conserved Hydrophobic Residues Are More Critical for Apoptotic Signaling as Compared with Conserved Charged Positions in the KILLER/DR5 DD. In order to functionally characterize the mutant receptors, this study employed three methods to assess cell death following transfection. The first method involved cotransfection of the mutant receptor along with pCMVb gal. Blue cells were counted after 40 hours in order to determine relative cell survival as compared with vector-transfected cells (number of blue cells for vector was set as equivalent to 100% survival; Table I). To specifically measure apoptosis, this study used a cotransfection based flow cytometric assay to functionally assess apoptotic signaling of each substitution mutant. Each mutant was cotransfected with an EGFP-spectrin construct at a 10:1 ratio (mutant plasmid:EGFP-spectrin plasmid) into SW480 cells for 18 hours and the presence of a sub-G1 peak was used to quantitate apoptotic signaling. […]
# [2] = system: SW480 cells; test: Blue cell assay (cotransfection with pCMVb gal, relative cell survival); details: for Blue cells % of vector: blue cells counted after 40 hours, vector-transfected blue cells set to 100% survival
# Protocol: Blue Cell Method. The blue cell method was performed as previously described (Meng, R. D., et al., Mol. Ther. 1:130-144 (2000)). Calculations for Table I were carried out by setting the number of vector-transfected blue cells to 100% (at least 300 cells for each independent experiment), and the wild-type and point mutants were determined as a percentage of vector transfected.
# Conserved Hydrophobic Residues Are More Critical for Apoptotic Signaling as Compared with Conserved Charged Positions in the KILLER/DR5 DD. In order to functionally characterize the mutant receptors, this study employed three methods to assess cell death following transfection. The first method involved cotransfection of the mutant receptor along with pCMVb gal. Blue cells were counted after 40 hours in order to determine relative cell survival as compared with vector-transfected cells (number of blue cells for vector was set as equivalent to 100% survival; Table I). To specifically measure apoptosis, this study used a cotransfection based flow cytometric assay to functionally assess apoptotic signaling of each substitution mutant. Each mutant was cotransfected with an EGFP-spectrin construct at a 10:1 ratio (mutant plasmid:EGFP-spectrin plasmid) into SW480 cells for 18 hours and the presence of a sub-G1 peak was used to quantitate apoptotic signaling. The use of the spectrinbound GFP allowed for the identification of specifically transfected cells, and the spectrin fusion permits cell membrane retention of GFP even if cells lose membrane permeability due to cell death (Kalejta, R. F., et al., Mol. Ther. 1:130-144 (2000)). […] One example of a signaling-competent and -incompetent mutant is also shown for comparison. Table II lists the results of three independent experiments for each mutant compared with the wild-type protein after subtracting out transfection-induced death.
# [3] = system: adrenal carcinoma cell line SW13; test: FACS for active caspase 3 after p53 transfection with irreversible caspase inhibitors; details: inhibitor 20 μM added four hours after transfection, harvested at 24 hours
# Protocol: Transfections and fluorescence-activated cell sorting (FACS) analysis. Transfections were carried out as previously described (Wu et al., 1997). In brief, before transfection, 5×10^5 cells/6 cm well were seeded. The cells were transfected with lipofectamine Plus. Four hours after transfections the media was changed and an irreversible caspase inhibitor, Z-IETD-FMK (caspase 8) or Z-LEHD-FMK (caspase 9) was added to the media at a final concentration of 20 μM. Cells were harvested 24 hours after transfection and prepared for detection of active-caspase 3 by flow cytometry as previously described (Ozoren et al., 2000). For adenoviral experiments, cells were harvested 48 hours after infection and fixed and stained with propidium iodide as previously described (Ozoren et al., 2000). Cell sorting was performed.
# FIG. 5. Infection of colon carcinoma cell line SW480 and breast carcinoma cell line SKBr3 with Ad-p53 results in caspase cleavage and apoptosis. (a) Western blot analysis for PARP cleavage after adenovirus infection. SW480 and SKBr3 cell lines were infected with an MOI of 50 with either Ad-LacZ or Ad-p53 and harvested at 0, 24 and 48 hours after infection. […] (b) Western blot analysis of caspase 8 and 9 cleavage after adenovirus infection. […]
# [4] = system: SW480 cell lines; test: FACS sub-G1 content after Ad-p53 infection of SW480 stably overexpressing c-FLIP-s or Bcl-XL; details: stable overexpression, 48 hours after infection
# Source text: Cell culture and adenoviral/retroviral infection. The culture conditions for SW480, HCT 116, and SkBr3 were maintained as previously described (Wu et al., 1997). The adrenal carcinoma cell line, SW13 was a kind gift from R. Sheikhattar (Wistar Institute). Ad-LacZ and Ad-p53 were obtained from B. Vogelstein (Johns Hopkins University) All adenoviruses were propagated, titered, and amplified as previously described (El-Deiry et al., 1993). The retroviral vector pLIB, pLIB-EGFP, pLIB-c-Flip-s, or pLIB-Bcl-XL was cotransfected with pVSVG and pCgP (Dr. Michael Malim, University of Pennsylvania) into 293T cells using the CaPO4 method. The resulting supernatant was used to infect the SW480 cell line (3×10^5 cell/well plated 48 hours before infection) at a titer necessary to obtain greater than 90% infectivity as previously described (Fouchier et al., 1997).
# Transfections and fluorescence-activated cell sorting (FACS) analysis. Transfections were carried out as previously described (Wu et al., 1997). In brief, before transfection, 5×10^5 cells/6 cm well were seeded. The cells were transfected with lipofectamine Plus. Four hours after transfections the media was changed and an irreversible caspase inhibitor, Z-IETD-FMK (caspase 8) or Z-LEHD-FMK (caspase 9) was added to the media at a final concentration of 20 μM. […]
# [5] = system: SW480 cells; test: PARP cleavage Western blot after transient transfection; details: 16 hours after transfection
# Protocol: Transfections, in Vitro Translation, and Western Blotting. The colon cancer cell line SW480 was maintained and transfected as described previously (Wu, G. S., et al., Nat. Genet. 17:141-143 (1997)). Protein extracts were harvested in 1×Laemmli sample buffer 16 hours after transfection. PARP and Myc immunoblots were performed following SDS-polyacrylamide gel electrophoresis. Horseradish peroxidase-conjugated secondary antibody (1:5000) treatments were followed by enhanced chemiluminescence. In vitro translation reactions were carried out using 1 μg of wild-type or mutant KILLER/DR5 plasmid DNA and a T7-coupled reticulocyte lysate system.
# as §1, with “The first method involved cotransfection of the mutant receptor along with pCMVb gal.” left out, “To specifically measure apoptosis, this study used a cotransfection based flow cytometric assay to functionally assess apoptotic signaling of each substitution mutant.” left out
# [6] = system: TRAIL DISC (FADD and caspase 8 recruitment) in 293 HEK cells; test: TRAIL DISC immunoprecipitation; details: 16 hours transfection, then 50 ng/ml His-tagged TRAIL 15 minutes at 37° C.
# Protocol: TRAIL DISC Immunoprecipitation. 293 HEK cells were plated to achieve 80% confluence at the time of transfection in a T75. 30 ug of the indicated KILLER/DR5 plasmid was transfected by calcium phosphate for 16 hours to minimize loss of transfected cells. The cells were then trypsinized, spun down, and resuspended in 2 ml of complete medium supplemented with 50 ng/ml His tagged-TRAIL and 1 μg/ml anti-6-histidine antibody for 15 minutes at 37° C. For untreated samples, only the TRAIL was excluded. The cells were washed twice with ice-cold phosphate-buffered saline and lysed for 30 minutes on ice in TRAIL DISC IP lysis buffer (30 mM Tris, pH 7.5, 150 mM NaCl, 10% glycerol, 1% Triton X-100). The lysates were cleared twice by centrifugation at 4° C. The supernatants were immunoprecipitated overnight with 30 μl of agarose at 4° C. to isolate the TRAIL DISC. The complexes were subsequently washed four times with TRAIL DISC IP lysis buffer and eluted with elution buffer with 0.1 M dithiothreitol at room temperature for 2 hours. The protein complexes were methanol/chloroform-precipitated and resolved on 15% SDS-polyacrylamide gels. […]
# 293 HEK cells were chosen due to their ability to be transfected and relative resistance to TRAIL-induced apoptosis. […] The DISC was then immunoprecipitated and analyzed for the presence of the exogenous KILLER/DR5 receptor along with FADD and caspase 8. […]
molecule,measurement,setting,value
K388A: KILLER/DR5 death domain alanine point mutant,Apoptotic ability (Table II),[1]; 18 hours after transfection,WT
same,Sub-G1 peak % WT (alanine scanning mutants),"[1]; 18 hours after transfection, transfection-induced death subtracted, wild-type death set to 100%, three independent experiments",101 ± 11.3 % WT
same,Blue cells % of vector,[2],9 ± 1.5 % of vector
CC[C@H](C)[C@H](NC(=O)OCc1ccccc1)C(=O)N[C@@H](CCC(=O)OC)C(=O)N[C@H](C(=O)N[C@@H](CC(=O)OC)C(=O)CF)[C@@H](C)O [Z-IETD-FMK] (Cbz-IE(OMe)TD(OMe)-CH2F),inhibition of p53-dependent apoptosis (activated caspase 3),[3],could be inhibited
"Bcl-XL: stably over-expressed Bcl-XL, specific inhibitor of caspase 9 activation",inhibition of p53-mediated death after Ad-p53 infection (sub-G1),[4],partially inhibit
"Wild-type KILLER/DR5: wild-type TRAIL receptor KILLER/DR5, Myc-His tagged expression construct",sub-G1 peak,"[1]; at 18 hours, absolute value set as 100% wild-type death",~40%
same,PARP cleavage,[5],efficiently caused PARP cleavage
same,FADD and caspase 8 recruitment to TRAIL DISC,[6],robust recruitment of both FADD and caspase 8
same,Blue cells % of vector,[2],8 ± 0.2 % of vector
same,blue cell staining retained,[2]; text summary of Table I,8%
"COC(=O)CC[C@H](NC(=O)[C@H](CC(C)C)NC(=O)OCc1ccccc1)C(=O)N[C@@H](Cc1cnc[nH]1)C(=O)N[C@@H](CC(=O)OC)C(=O)CF [Z-LETD-FMK, Z-LEHD-FMK] (Cbz-LE(OMe)HD(OMe)-CH2F)",inhibition of p53-dependent apoptosis (activated caspase 3),[3],could be inhibited
